Test system: HCV replicon
Assay: HCV replicon system in Huh7 cells, replicon RNA by Q-RT-PCR (HCV ΔCt, ΔΔCt)
Format: cell-based, hepatitis C virus
Conditions: Table 24; HCV RNA ΔCt minus rRNA ΔCt
Further: test concentration or dose not given here.

Point of comparison: `Cc1ccc(S(=O)(=O)O[C@@H]2[C@@H](O)[C@H](n3cc(I)c(N)nc3=O)O[C@@H]2CO)cc1` [β-D-BF], “Ave. ΔΔCt” value 1.68. Against it:
- Nc1nc(=O)n([C@@H]2O[C@H](CO)[C@H](Br)[C@H]2O)cc1I [β-D-BE] — lower, 1.64
- Nc1ccn([C@@H]2O[C@H](CO)[C@@H](O)[C@@H]2O)c(=O)n1 [β-D-AA] — lower, 1.42
- Nc1cn([C@@H]2O[C@H](CO)[C@@H](O)[C@H]2O)c(=O)nc1N [β-D-BJ] — lower, 1.44
- Nc1nc(=O)c([C@@H]2O[C@H](CO)[C@@H](O)[C@H]2O)c[nH]1 [β-D-RB] — lower, 1.12
- Nc1nc(=O)n([C@@H]2O[C@H](CO)[C@@H](O)[C@@H]2Br)cc1I [β-D-BH] — higher, 2.15
- Nc1nc(Cl)c2ncn([C@H]3CS[C@@H](CO)O3)c2n1 [β-D-KB] — lower, 1.10
- Cc1ccc(S(=O)(=O)O[C@@H]2[C@@H](O)[C@H](n3ccc(N)nc3=O)O[C@@H]2CO)cc1 [β-D-AL] — lower, 0.36

Same assay, conditions: Table 24; HCV replicon in Huh7 cells; average of n

Point of comparison: `Nc1nc(Cl)c2ncn([C@H]3CS[C@@H](CO)O3)c2n1` [β-D-KB], “Ave. HCV RNA ΔCt” value 3.61. Against it:
- Nc1nc(=O)n([C@@H]2O[C@H](CO)[C@H](Br)[C@H]2O)cc1I [β-D-BE] — higher, 4.44
- Nc1ccn([C@@H]2O[C@H](CO)[C@@H](O)[C@@H]2O)c(=O)n1 [β-D-AA] — higher, 3.83
- Nc1cn([C@@H]2O[C@H](CO)[C@@H](O)[C@H]2O)c(=O)nc1N [β-D-BJ] — higher, 5.06
- Nc1nc(=O)c([C@@H]2O[C@H](CO)[C@@H](O)[C@H]2O)c[nH]1 [β-D-RB] — higher, 4.30
- Nc1nc(=O)n([C@@H]2O[C@H](CO)[C@@H](O)[C@@H]2Br)cc1I [β-D-BH] — lower, 3.06
- Cc1ccc(S(=O)(=O)O[C@@H]2[C@@H](O)[C@H](n3cc(I)c(N)nc3=O)O[C@@H]2CO)cc1 [β-D-BF] — higher, 4.37
- Cc1ccc(S(=O)(=O)O[C@@H]2[C@@H](O)[C@H](n3ccc(N)nc3=O)O[C@@H]2CO)cc1 [β-D-AL] — lower, 3.08

Same assay, conditions: Table 25; HCV RNA ΔCt minus rDNA ΔCt

Point of comparison: `Nc1nc(=O)n([C@@H]2O[C@H](CO)[C@H](Br)[C@H]2O)cc1I` [β-D-BE], “average ΔΔCt” value 2.98. Against it:
- Nc1ccn([C@@H]2O[C@H](CO)[C@@H](O)[C@@H]2O)c(=O)n1 [β-D-AA] — lower, 1.88
- Nc1cn([C@@H]2O[C@H](CO)[C@@H](O)[C@H]2O)c(=O)nc1N [β-D-BJ] — higher, 3.53
- Nc1nc(=O)c([C@@H]2O[C@H](CO)[C@@H](O)[C@H]2O)c[nH]1 [β-D-RB] — lower, 2.74
- Nc1nc(=O)n([C@@H]2O[C@H](CO)[C@@H](O)[C@@H]2Br)cc1I [β-D-BH] — lower, 1.64
- Nc1nc(Cl)c2ncn([C@H]3CS[C@@H](CO)O3)c2n1 [β-D-KB] — higher, 3.81
- Cc1ccc(S(=O)(=O)O[C@@H]2[C@@H](O)[C@H](n3cc(I)c(N)nc3=O)O[C@@H]2CO)cc1 [β-D-BF] — higher, 3.28
- Cc1ccc(S(=O)(=O)O[C@@H]2[C@@H](O)[C@H](n3ccc(N)nc3=O)O[C@@H]2CO)cc1 [β-D-AL] — lower, 0.61

Same assay, conditions: Table 25; HCV replicon in Huh7 cells; average of N

Point of comparison: `Nc1ccn([C@@H]2O[C@H](CO)[C@@H](O)[C@@H]2O)c(=O)n1` [β-D-AA], “Ave. HCV RNA ΔCt” value 3.83. Against it:
- Nc1nc(=O)n([C@@H]2O[C@H](CO)[C@H](Br)[C@H]2O)cc1I [β-D-BE] — higher, 4.99
- Nc1cn([C@@H]2O[C@H](CO)[C@@H](O)[C@H]2O)c(=O)nc1N [β-D-BJ] — higher, 4.34
- Nc1nc(=O)c([C@@H]2O[C@H](CO)[C@@H](O)[C@H]2O)c[nH]1 [β-D-RB] — higher, 4.00
- Nc1nc(=O)n([C@@H]2O[C@H](CO)[C@@H](O)[C@@H]2Br)cc1I [β-D-BH] — lower, 3.06
- Nc1nc(Cl)c2ncn([C@H]3CS[C@@H](CO)O3)c2n1 [β-D-KB] — lower, 3.81
- Cc1ccc(S(=O)(=O)O[C@@H]2[C@@H](O)[C@H](n3cc(I)c(N)nc3=O)O[C@@H]2CO)cc1 [β-D-BF] — higher, 5.27
- Cc1ccc(S(=O)(=O)O[C@@H]2[C@@H](O)[C@H](n3ccc(N)nc3=O)O[C@@H]2CO)cc1 [β-D-AL] — lower, 3.18

Test system: rRNA (host RNA polymerase I product)
Assay: rRNA ΔCt in Huh7 replicon cells (effect on host RNA polymerases)
Conditions: Table 24, average of n
Excerpt: In a typical setting, a compound might reduce both the host RNA polymerase activity and the replicon-encoded polymerase activity. Therefore, quantification of rRNA (or any other host RNA polymerase I product) or beta-actin mRNA (or any other host RNA polymerase II) and comparison with RNA levels of the no-drug control is a relative measurement of the effect of the test compound on host RNA polymerases.
With the availability of both the HCV ΔCt data and the rRNA ΔCt, a specificity parameter can be introduced. This parameter is obtained by subtracting both ΔCt values from each other.

Point of comparison: `Nc1cn([C@@H]2O[C@H](CO)[C@@H](O)[C@H]2O)c(=O)nc1N` [β-D-BJ], “Ave. rRNA ΔCt” value 3.62. Against it:
- Nc1nc(=O)n([C@@H]2O[C@H](CO)[C@H](Br)[C@H]2O)cc1I [β-D-BE] — lower, 2.80
- Nc1ccn([C@@H]2O[C@H](CO)[C@@H](O)[C@@H]2O)c(=O)n1 [β-D-AA] — lower, 2.41
- Nc1nc(=O)c([C@@H]2O[C@H](CO)[C@@H](O)[C@H]2O)c[nH]1 [β-D-RB] — lower, 3.18
- Nc1nc(=O)n([C@@H]2O[C@H](CO)[C@@H](O)[C@@H]2Br)cc1I [β-D-BH] — lower, 0.91
- Nc1nc(Cl)c2ncn([C@H]3CS[C@@H](CO)O3)c2n1 [β-D-KB] — lower, 2.52
- Cc1ccc(S(=O)(=O)O[C@@H]2[C@@H](O)[C@H](n3cc(I)c(N)nc3=O)O[C@@H]2CO)cc1 [β-D-BF] — lower, 2.69
- Cc1ccc(S(=O)(=O)O[C@@H]2[C@@H](O)[C@H](n3ccc(N)nc3=O)O[C@@H]2CO)cc1 [β-D-AL] — lower, 2.72

Test system: rDNA (host DNA)
Assay: rDNA ΔCt in Huh7 replicon cells (effect on cellular DNA polymerases)
Conditions: Table 25, average of N
Excerpt: In another typical setting, a compound might reduce the host RNA polymerase activity, but not the host DNA polymerase activity. Therefore, quantification of rDNA or beta-actin DNA (or any other host DNA fragment) and comparison with DNA levels of the no-drug control is a relative measurement of the inhibitory effect of the test compound on cellular DNA polymerases.
With the availability of both the HCV ΔCt data and the rDNA ΔCt, a specificity parameter can be introduced. This parameter is obtained by subtracting both ΔCt values from each other.

Point of comparison: `Nc1nc(=O)n([C@@H]2O[C@H](CO)[C@H](Br)[C@H]2O)cc1I` [β-D-BE], “Ave. rDNA ΔCt” value 2.06. Against it:
- Nc1ccn([C@@H]2O[C@H](CO)[C@@H](O)[C@@H]2O)c(=O)n1 [β-D-AA] — higher, 2.53
- Nc1cn([C@@H]2O[C@H](CO)[C@@H](O)[C@H]2O)c(=O)nc1N [β-D-BJ] — lower, 0.81
- Nc1nc(=O)c([C@@H]2O[C@H](CO)[C@@H](O)[C@H]2O)c[nH]1 [β-D-RB] — lower, 1.27
- Nc1nc(=O)n([C@@H]2O[C@H](CO)[C@@H](O)[C@@H]2Br)cc1I [β-D-BH] — lower, 1.42
- Nc1nc(Cl)c2ncn([C@H]3CS[C@@H](CO)O3)c2n1 [β-D-KB] — lower, 0.00
- Cc1ccc(S(=O)(=O)O[C@@H]2[C@@H](O)[C@H](n3cc(I)c(N)nc3=O)O[C@@H]2CO)cc1 [β-D-BF] — lower, 2.04
- Cc1ccc(S(=O)(=O)O[C@@H]2[C@@H](O)[C@H](n3ccc(N)nc3=O)O[C@@H]2CO)cc1 [β-D-AL] — higher, 2.56
